What was measured:
HCC1143 = test: CelltiterGlo viability cell assay; type: cell-based
Experimental: (§1) Supplementary Figure 13. […] Viability of
(§2) (a) Multiple Myeloma lines and (b) Breast Cancer cell lines following 3 or 6 days treatment with […]
(§3) manufacturer’s instructions as described in the Supplementary methods. Data are normalized to DMSO control. N=3 biological replicates, +/- SEM. Source data are provided as a Source Data […]
(§4) CelltiterGlo viability cell assay
(§5) Cells were seeded in 96 well plates at per-well densities of 10000 (MDA-MB436, ATCC-HTB130), 15000 (8226, kind gift from Rodger Tiedemann, Princess Margaret Cancer Centre), […]
(§6) kind gift from Rodger Tiedemann, Princess Margaret Cancer Centre) and 50000 (CAL851, kind gift from Mathieu Lupien, Princess Margaret Cancer Centre) and were treated at increasing concentrations of compounds ranging from 0.01 μM to 30 μM and assessed for proliferation using CelltiterGlo (Promega) following manufacturer’s instructions, as readout on days 3 and 6 as indicated. All cell lines were mycoplasma negative, as determined by MycoAlert™ Mycoplasma Detection Kit(Lonza). […]

HCC1806 = test: CelltiterGlo viability cell assay; type: cell-based
Experimental: as §1, §2, §3, §4, §5, §6

## COc1cc(OC)cc(-c2noc(N3CCN(C)C4(CCN(c5ccccc5)CC4)C3)n2)c1 [MRK-740N]
HCC1143; HCC1143, 3 day, 0.01 uM
  viability Average: 99.63
  viability Replicate 1: 94.06
  viability Replicate 2: 105.87
  viability Replicate 3: 98.96
HCC1143; HCC1143, 3 day, 0.03 uM
  viability Average: 100.04
  viability Replicate 1: 98.98
  viability Replicate 2: 103.01
  viability Replicate 3: 98.14
HCC1143; HCC1143, 3 day, 0.1 uM
  viability Average: 100.66
  viability Replicate 1: 94.28
  viability Replicate 2: 108.89
  viability Replicate 3: 98.81
HCC1143; HCC1143, 3 day, 0.3 uM
  viability Average: 101.81
  viability Replicate 1: 94.36
  viability Replicate 2: 110.71
  viability Replicate 3: 100.36
HCC1143; HCC1143, 3 day, 1 uM
  viability Average: 102.28
  viability Replicate 1: 95.62
  viability Replicate 2: 111.25
  viability Replicate 3: 99.98
HCC1143; HCC1143, 3 day, 3 uM
  viability Average: 102.58
  viability Replicate 1: 95.70
  viability Replicate 2: 110.25
  viability Replicate 3: 101.79
HCC1143; HCC1143, 3 day, 9.5 uM
  viability Average: 96.93
  viability Replicate 1: 91.87
  viability Replicate 2: 108.74
  viability Replicate 3: 90.19
HCC1143; HCC1143, 3 day, 30 uM
  viability Average: 42.44
  viability Replicate 1: 41.34
  viability Replicate 2: 45.73
  viability Replicate 3: 40.25
HCC1143; HCC1143, 6 day, 0.03 uM
  viability Average: 106.15
  viability Replicate 1: 104.58
  viability Replicate 2: 106.98
  viability Replicate 3: 106.88
HCC1143; HCC1143, 6 day, 0.1 uM
  viability Average: 106.29
  viability Replicate 1: 110.44
  viability Replicate 2: 106.94
  viability Replicate 3: 101.48
HCC1143; HCC1143, 6 day, 0.3 uM
  viability Average: 109.27
  viability Replicate 1: 115.47
  viability Replicate 2: 108.44
  viability Replicate 3: 103.89
HCC1143; HCC1143, 6 day, 1 uM
  viability Average: 112.12
  viability Replicate 1: 119.58
  viability Replicate 2: 108.44
  viability Replicate 3: 108.34
HCC1143; HCC1143, 6 day, 3 uM
  viability Average: 118.66
  viability Replicate 1: 128.58
  viability Replicate 2: 111.85
  viability Replicate 3: 115.55
HCC1143; HCC1143, 6 day, 9.5 uM
  viability Average: 112.33
  viability Replicate 1: 117.62
  viability Replicate 2: 107.90
  viability Replicate 3: 111.46
HCC1143; HCC1143, 6 day, 30 uM
  viability Average: 53.32
  viability Replicate 1: 56.13
  viability Replicate 2: 63.79
  viability Replicate 3: 40.04
HCC1806; HCC1806, 3 day, 0.01 uM
  viability Average: 114.56
  viability Replicate 1: 108.66
  viability Replicate 2: 106.14
  viability Replicate 3: 128.88
HCC1806; HCC1806, 3 day, 0.03 uM
  viability Average: 112.72
  viability Replicate 1: 107.72
  viability Replicate 2: 100.89
  viability Replicate 3: 129.55
HCC1806; HCC1806, 3 day, 0.1 uM
  viability Average: 114.82
  viability Replicate 1: 110.69
  viability Replicate 2: 103.88
  viability Replicate 3: 129.88
HCC1806; HCC1806, 3 day, 0.3 uM
  viability Average: 114.56
  viability Replicate 1: 110.72
  viability Replicate 2: 101.60
  viability Replicate 3: 131.35
HCC1806; HCC1806, 3 day, 1 uM
  viability Average: 117.58
  viability Replicate 1: 111.18
  viability Replicate 2: 107.64
  viability Replicate 3: 133.91
HCC1806; HCC1806, 3 day, 3 uM
  viability Average: 114.75
  viability Replicate 1: 110.32
  viability Replicate 2: 101.81
  viability Replicate 3: 132.12
HCC1806; HCC1806, 3 day, 9.5 uM
  viability Average: 100.22
  viability Replicate 1: 94.76
  viability Replicate 2: 91.96
  viability Replicate 3: 113.95
HCC1806; HCC1806, 3 day, 30 uM
  viability Average: 31.36
  viability Replicate 1: 29.97
  viability Replicate 2: 27.69
  viability Replicate 3: 36.41
HCC1806; HCC1806, 6 day, 0.03 uM
  viability Average: 104.14
  viability Replicate 1: 102.41

Source: article PMC6917776, “Discovery of a chemical probe for PRDM9” (Nature Communications, 2019)
